In patent US20060111381A1, “Amidine compounds” (priority 2002, published 2006):
Where “and” joins values, the source holds several entries; their conditions need not be identical. Equal values may be shown once. Where a name gives a salt, the structure may show the parent alone.

What was measured:
[1] = test system: ICR mice; assay: Straub tail behaviour (indicator of CNS activity) in writhing-study mice; conditions: any doses (1 to 128 mg/kg IP)
[2] = test system: ICR mice; assay: Phenylquinone-induced writhing model in mice (writhes counted in following 5-10 minute period); type: in vivo; conditions: for No. of Writhings, Individual: individual mice; for % Inhibition: relative to vehicle group
Method: (§1) Testing on compound KRS-6-48 was carried out under contract by MDS Services—Taiwan Ltd. KRS-6-48 was evaluated for possible analgesic activity in the phenylquinone-induced writhing model in mice (Siegmund et al, 1957). A serial 2-fold dosage variance was used in the test, from 128 mg/kg to 1 mg/kg (8 doses in total). Groups of 3 male or female ICR mice weighing 22±2 g were employed. Variant doses (1, 2, 4, 8, 16, 32, 64 and 128 mg/kg) of test substances were administered intraperitoneally (IP). A vehicle of 2% Tween 80 in 0.9% NaCl was used for the intraperitoneal injection. The control group received vehicle alone. […] A reduction in the number of writhes by 50 percent or more (≧50%) relative to the vehicle-treated group indicated possible analgesic activity.
Testing on compounds KRS-6-41, KRS-6-51, and KRS-6-71 was also carried out under contract by MDS Services—Taiwan Ltd. The study was designed to evaluate the effects of the compounds as analgesics in the phenylquinone-induced writhing assay described in detail in Example 10 (Siegmund et al, 1957).
as §1, with “In each case, a” for “Testing on compound KRS-6-48 was carried out under contract by MDS Services—Taiwan Ltd. KRS-6-48 was evaluated for possible analgesic activity in the phenylquinone-induced writhing model in mice (Siegmund et al, 1957). A”

[3] = molecular target: T1, human μ-opiate receptor (Homo sapiens, UniProt P35372); assay: In vitro opiate receptor radioligand binding assay (MDS 260410); conditions: test compound 10 μM, read-out: Percentage Inhibition of Radioligand Binding
T1 construct: purchased MDS Pharma Services 260410
T1 sequence (P35372 whole entry): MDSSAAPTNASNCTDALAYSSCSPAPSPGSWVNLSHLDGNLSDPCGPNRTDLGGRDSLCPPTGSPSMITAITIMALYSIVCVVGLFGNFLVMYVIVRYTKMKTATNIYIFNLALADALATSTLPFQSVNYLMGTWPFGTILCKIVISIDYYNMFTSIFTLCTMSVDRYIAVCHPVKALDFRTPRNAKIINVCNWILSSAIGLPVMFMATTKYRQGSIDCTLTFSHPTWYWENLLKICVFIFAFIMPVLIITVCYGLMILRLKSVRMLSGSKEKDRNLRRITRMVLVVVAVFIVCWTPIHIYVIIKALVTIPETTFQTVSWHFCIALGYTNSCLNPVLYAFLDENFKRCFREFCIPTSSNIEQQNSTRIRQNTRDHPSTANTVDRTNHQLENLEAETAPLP
Method: (§2) To characterise the target specificity of the compounds, KRS-6-41, KRS-6-48 and KRS-6-51 were tested at a concentration of 10 μM for their ability to inhibit the binding of a radioligand to human δ-, κ-, or μ-opiate receptors in vitro using commercially available assays (MDS Pharma Services; assay catalogue numbers 260110, 260210 and 260410 respectively).

[4] = molecular target: T2, human δ-opiate receptor (Homo sapiens, UniProt P41143); assay: In vitro opiate receptor radioligand binding assay (MDS 260110); conditions: test compound 10 μM, read-out: Percentage Inhibition of Radioligand Binding
T2 construct: purchased MDS Pharma Services 260110
T2 sequence (P41143 whole entry): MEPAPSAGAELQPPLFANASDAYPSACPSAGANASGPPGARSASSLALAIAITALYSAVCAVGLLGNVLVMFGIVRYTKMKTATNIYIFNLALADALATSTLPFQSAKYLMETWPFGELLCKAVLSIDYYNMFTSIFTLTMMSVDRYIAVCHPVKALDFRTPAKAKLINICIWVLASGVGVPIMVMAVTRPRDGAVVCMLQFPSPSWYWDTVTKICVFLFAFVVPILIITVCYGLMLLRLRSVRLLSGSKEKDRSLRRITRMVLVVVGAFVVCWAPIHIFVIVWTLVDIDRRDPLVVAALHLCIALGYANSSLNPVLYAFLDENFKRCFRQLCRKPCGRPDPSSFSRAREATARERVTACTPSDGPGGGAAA
Method: as §2

[5] = test system: ICR mice; assay: Deaths and adverse signs observed in writhing-study mice; type: in vivo; conditions: 128 mg/kg IP
Method: as §1
as §1, with “In each case, a” for “Testing on compound KRS-6-48 was carried out under contract by MDS Services—Taiwan Ltd. KRS-6-48 was evaluated for possible analgesic activity in the phenylquinone-induced writhing model in mice (Siegmund et al, 1957). A”

[6] = molecular target: T3, human κ-opiate receptor (Homo sapiens, UniProt P41145); assay: In vitro opiate receptor radioligand binding assay (MDS 260210); conditions: test compound 10 μM, read-out: Percentage Inhibition of Radioligand Binding
T3 construct: purchased MDS Pharma Services 260210
T3 sequence (P41145 whole entry): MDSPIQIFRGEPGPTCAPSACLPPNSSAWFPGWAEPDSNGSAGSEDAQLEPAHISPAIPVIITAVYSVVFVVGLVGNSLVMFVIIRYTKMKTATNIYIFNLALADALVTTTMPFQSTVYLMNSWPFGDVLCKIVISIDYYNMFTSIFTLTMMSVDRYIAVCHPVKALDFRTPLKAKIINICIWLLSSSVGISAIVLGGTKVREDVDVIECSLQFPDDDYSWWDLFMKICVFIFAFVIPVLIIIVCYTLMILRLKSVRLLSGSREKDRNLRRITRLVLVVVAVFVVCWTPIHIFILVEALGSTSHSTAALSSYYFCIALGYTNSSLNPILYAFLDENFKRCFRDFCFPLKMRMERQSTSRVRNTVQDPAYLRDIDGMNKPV
Method: as §2

| Structure (SMILES) | melting point [°C] | Straub tail behaviour [1] | No. of Writhings, Average ([2]; 1 mg/kg IP) | No. of Writhings, Individual ([2]; 1 mg/kg IP) | % Inhibition ([2]; 1 mg/kg IP) [%] | No. of Writhings, Average ([2]; 2 mg/kg IP) | No. of Writhings, Individual ([2]; 2 mg/kg IP) | % Inhibition ([2]; 2 mg/kg IP) [%] | No. of Writhings, Average ([2]; 4 mg/kg IP) | No. of Writhings, Individual ([2]; 4 mg/kg IP) | % Inhibition ([2]; 4 mg/kg IP) [%] | No. of Writhings, Average ([2]; 8 mg/kg IP) | No. of Writhings, Individual ([2]; 8 mg/kg IP) | % Inhibition ([2]; 8 mg/kg IP) [%] | No. of Writhings, Average ([2]; 16 mg/kg IP) | No. of Writhings, Individual ([2]; 16 mg/kg IP) | % Inhibition ([2]; 16 mg/kg IP) [%] | No. of Writhings, Average ([2]; 32 mg/kg IP) | No. of Writhings, Individual ([2]; 32 mg/kg IP) | % Inhibition ([2]; 32 mg/kg IP) [%] | also measured |
| --- | --- | --- | --- | --- | --- | --- | --- | --- | --- | --- | --- | --- | --- | --- | --- | --- | --- | --- | --- | --- | --- |
| CCC(=Nc1ccccc1)NCCCN1CC[C@]23c4c5ccc(O)c4O[C@H]2[C@@H](O)C=CC3[C@H]1C5 (stereo partly drawn) (as salt: HCl) [KRS-6-48, (5α,6α)-7,8-didehydro-4,5-epoxy-17-((N-phenylpropionamidino)-propyl)morphinan, 3,6-diol] | 188 to 190 | – | – | – | – | – | – | – | – | – | – | – | – | – | – | – | – | – | – | – | – |
| CCC(=Nc1ccccc1CC)NCCCN1CC[C@]23c4c5ccc(O)c4O[C@H]2[C@@H](O)C=CC3[C@H]1C5 (stereo partly drawn) [KRS-6-71, (5α,6α)-7,8-didehydro-4,5-epoxy-17-((N-(2-ethylphenyl)propionamidino)-propyl)morphinan, 3,6-diol] | 58 to 59 | None of the test animals exhibited Straub tail behaviour | 18 | 24 and 13 and 18 | 22 | 14 | 2 and 12 and 18 | 39 | 11 | 16 (2×) and 2 | 52 | 11 | 0 and 18 and 15 | 52 | 7 | 13 and 0 and 8 | 70 | 7 | 6 and 0 and 15 | 70 | No. of Writhings, Average ([2]; 64 mg/kg IP): 1; No. of Writhings, Individual ([2]; 64 mg/kg IP): 0 (2×) and 3; % Inhibition ([2]; 64 mg/kg IP): 96%; No. of Writhings, Average ([2]; 128 mg/kg IP): 0; No. of Writhings, Individual ([2]; 128 mg/kg IP): 0; % Inhibition ([2]; 128 mg/kg IP): 100% |
| CC(=Nc1ccccc1)NCCCN1CC[C@]23c4c5ccc(O)c4O[C@H]2[C@@H](O)C=CC3[C@H]1C5 (stereo partly drawn) [KRS-6-51, (5α,6α)-7,8-didehydro-4,5-epoxy-17-((N-phenylacetamidino)-propyl)morphinan, 3,6-diol] | – | None of the test animals exhibited Straub tail behaviour | 12 | 11 and 14 and 12 | 20 | 11 | 18 and 9 and 7 | 27 | 10 | 10 and 13 and 7 | 33 | 8 | 9 and 8 (2×) | 47 | 8 | 12 and 4 and 7 | 47 | 5 | 3 and 5 and 7 | 67 | inhibition at 10 µM [3]: 97%; inhibition at 10 µM [4]: 37%; test animals exhibiting tremors and edema [5]: 2 of the 3; test animals died within 15 minutes ([5]; within 15 minutes): 21 of the 3; inhibition at 10 µM [6]: 54%; No. of Writhings, Average ([2]; 64 mg/kg IP): 0; No. of Writhings, Individual ([2]; 64 mg/kg IP): 0; % Inhibition ([2]; 64 mg/kg IP): 100%; No. of Writhings, Individual ([2]; 128 mg/kg IP): died and 0 (2×); analgesic activity in writhing model (in words) ([2]; at doses of 64 and 32 mg/kg IP): significant activity |
